# Measured values: article PMC4535335 (Bioorganic & medicinal chemistry letters, 2014)
# Experiments:
# [1] = plasma protein binding; cited from earlier work
# [2] = cited from earlier work
# [3] = cited from earlier work; remark: listed apart in the source
# [4] = intrinsic clearance in rat hepatic microsomes fortified with NADPH; format: in vitro ADME; settings: OCD3 for OCH3
# [5] = intrinsic clearance in human hepatic microsomes fortified with NADPH; format: in vitro ADME
SMILES,human fu [1],rat brain fu [2],brain:plasma Kp [3],improvement to rat intrinsic clearance relative to VU6000181 [4],reduction of human in vitro intrinsic clearance relative to VU6000181 ([5]; OCD3 for OCH3),"CLint scaled ([5]; human, microsomes)"
O=C(c1ccc(F)c(F)c1)N1CCN2C(=O)c3ccccc3[C@@]12c1ccc(Cl)cc1 [ML375],0.013,0.003,1.8,,,
[2H]C([2H])([2H])Oc1ccc([C@@]23c4ccccc4C(=O)N2CCN3C(=O)c2cc(F)c(F)c(F)c2)cc1C [VU6001005],,,,negligible improvement,~ 5 fold,72.9 mL/min/kg
